Test results reported in patent US20220062166A1, “Self-Gelling Solutions for Administration of Therapeutics to the Inner Ear” (Spiral Therapeutics, Inc., priority 2019, published 2022).

Assays:
[1] = molecular target: T1, caspase 3 (Homo sapiens, UniProt P42574); experiment: Caspase 3 activation assay with recombinant proteins; type: biochemical; details: in %
T1 sequence (P42574 29-277): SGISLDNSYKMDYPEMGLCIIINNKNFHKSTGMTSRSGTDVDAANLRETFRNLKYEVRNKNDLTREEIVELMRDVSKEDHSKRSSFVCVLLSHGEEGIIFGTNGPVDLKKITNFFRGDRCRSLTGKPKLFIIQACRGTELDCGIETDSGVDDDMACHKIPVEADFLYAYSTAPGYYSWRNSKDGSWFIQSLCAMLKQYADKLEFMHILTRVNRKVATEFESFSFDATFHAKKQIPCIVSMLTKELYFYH
Procedure: The specificity of LPT99 was tested in vitro on Apaf1, caspase 3, and caspase 9 (proteins from the apoptotic cascade), and a broad panel of potential pharmacological targets.
LPT99 inhibited the formation of the apoptosome complex composed by recombinant Apaf1, cyt c, deoxyadenosine triphosphate (dATP), and caspase 9. This activity was measured as inhibition of caspase 3 activation. […] To evaluate the specificity of the inhibition, an assay of caspase 3 and 9 activation was set up with recombinant proteins. The inhibitions of caspase 3 and 9 were 7.6±14.7 and 5.3±3.5, respectively, for LPT99.

[2] = test system: A549 cells; experiment: Proliferation of non-apoptotic A549 cells (flow cytometry, doubling time); type: cell-based; details: A549 cells cultured up to 6 days; reversible on removal
Procedure: The effect of LPT99 on proliferation of non-apoptotic cells was studied. A549 cells were cultured in the presence of LPT99 for up to 6 days; the cell number was monitored by flow cytometry, and doubling time was calculated.

[3] = test system: panel of receptors (44 GPCR and 4 non-GPCR), 4 ion channels, and 3 transporters; experiment: Off-target selectivity panel; type: binding; details: 10 μM
Procedure: (§1) To identify off-target activities of LPT99, its selectivity against a panel of receptors (44 G-protein-coupled receptors [GPCR] and 4 non-GPCR), 4 ion channels, and 3 transporters were analyzed. The cell line, HEI-OC1 (house ear institute organ of Corti 1), which expresses several characteristic markers of the organ of Corti sensory cells (Kalinec, et al. , Audiol. Neurootol. 2003, 8(4), 177-89), was used to evaluate the efficacy of LPT99 in preventing apoptosis due to […]. Cells were pre-incubated with LPT99, followed by […] for 24 hours.
(§2) For 14 of the tested targets—adenosine receptor 3 (A3); cholecystokinin: cholecystokinin receptor 1 (CCK1); melatonin receptor (MT1); neurokinin (NK2 and NK3); opioid (kOP and mOP); serotonin receptors (5HT-1A, 5HT-2A, 5HT−2B and 5HT−7); and vasopressin (V1A; Na+channel site 2 and Cl-GABA-gated channel)—the LPT99 affinity was >50%. At 1 μM, the inhibition of 13 of these targets was <50%, indicating a very low affinity with LPT99.

[4] = test system: opioid kOP; experiment: Off-target panel: kOP; type: binding
Procedure: as §1, §2

[5] = test system: Cl-GABA-gated channel; experiment: Off-target panel: Cl- GABA-gated channel; type: binding
Procedure: as §1, §2

[6] = test system: CisPt-induced hearing loss; experiment: Model of CisPt-induced hearing loss in rats (TT administration); type: in vivo, rat; details: TT administration of LPT99 in hydrogel, dose dependent
Procedure: The protective effect of LPT99 was evaluated 3 days […] administration by functional measures, such as auditory brainstem response (ABR) threshold shift, DPOAE, and expression of biomarkers of apoptosis in cochlea and cytocochleograms.

[7] = Plasma concentrations after TT administration of LPT99-CD in female Wistar rats; type: in vivo, rat
[8] = test system: ion channels, including hERG potassium channels; experiment: Effects on ion channels including hERG in CHO and HEK 293 cells; type: cell-based
Source text: Torsadogenic refers to the development of torsade de Pointes (TdP) arrhythmias

[9] = Metabolic profile and stability in microsomal and S9 hepatic fractions; type: in vitro ADME, human, dog, rabbit, rat, and mouse
Source text: The metabolic profile and stability of LPT99 was characterized in human, dog, rabbit, rat, and mouse microsomal and S9 fractions, and in human cytosolic fractions.

[10] = test system: BALB/c 3T3 mouse fibroblasts; experiment: In vitro phototoxicity in BALB/c 3T3 mouse fibroblasts; type: cell-based; details: ≤100 μM
Procedure: An in vitro experiment was performed in BALB/c 3T3 mouse fibroblasts to determine the phototoxic potential of LPT99 at concentrations of ≤100 μM in 3T3L1 cells.

[11] = Physical stability of drug product vials; type: physicochemical; details: vials stored at 4C
Procedure: Vials of the drug product were stored at either room temperature or 4° C. for a period greater than three months. To test the LPT99 concentration in vials, the liquid drug product was filtered through sterile 0.2 micron filters.

[12] = GLP auditory safety study in rats after single TT administration; details: rat, in vivo
Procedure: The study consisted of 10 groups of rats: 6 groups for toxicology (Groups 1 to 6, 20 males and 20 females per group), and 4 groups for toxicokinetics (Groups 7 to 10, 6 males and 6 females per group).
All animals were assessed weekly for body weights and qualitative food consumption. In addition, otoscopic evaluation of the dosing sites (tympanic membrane, Groups 1 to 6) and ABR testing for hearing function were performed at predosing; and on Days 1, 7, and/or 14. Animals in the toxicology groups (Groups 1 to 6) were sacrificed on Day 1 (10 males and 10 females per group) and Day 14 (the remaining 10 males and 10 females per group). At necropsy, terminal blood samples were tested for hematology, serum chemistry, and coagulation parameters. Gross observations were recorded, and selected organs were weighed. One ear per animal in Groups 1 to 5 was collected and processed for cytocochleogram assessment.

SMILES: COc1ccc2[nH]cc(CCNC(=O)CC3C(=O)N(CCc4ccc(Cl)cc4Cl)CC(=O)N3CCc3cccs3)c2c1 (centres unmarked) [LPT99, 2-(4-(2,4-dichlorophenethyl)-3,6-dioxo-1-(2-(thiophen-2-yl)ethyl)piperazin-2-yl)-N-(2-(5-methoxy-1H-indol-3-yl)ethyl)acetamide]
- inhibition of caspase 3 [1]: 7.6±14.7
- effect on proliferation of non-apoptotic cells [2]: delayed cellular proliferation by accumulation of cells at the G1 phase of the cell cycle
- in vitro inhibition for 41 of the tested targets [3]: < 50%
- inhibition kOP ([4]; 1 μM): < 50%
- affinity (inhibition) kOP ([4]; 10 μM): > 50%
- inhibition Cl-GABA-gated channel ([5]; 1 μM): < 50%
- affinity (inhibition) Cl-GABA-gated channel ([5]; 10 μM): > 50%
- protection against CisPt-induced hearing loss vs vehicle control [6]: protected against CisPt-induced hearing loss
- plasma concentration of 3.2 nM as fraction of administered dose ([7]; 50 μM dose): 0.006%
- plasma concentration of 3.2 nM as fraction of administered dose ([7]; 100 μM dose): 0.003%
- plasma concentration of 3.2 nM as fraction of administered dose ([7]; 200 μM dose): 0.0016%
- plasma level after TT administration (not detectable; detection limit) ([7]; TT administration): < 3.2 nM
- Plasma LPT99 concentrations (BLLQ) ([7]; female Wistar rats, 1 hour and 2, 4, 7, 15 days after single 50 μL TT dose of 50, 100, or 200 μM LPT99-CD): < 2 ng/mL
- torsadogenic risk [8]: low torsadogenic risk
- number of metabolites formed through phase I biotransformation [9]: ≤ 9
- metabolized after 1 hour ([9]; microsomal and S9 hepatic fractions, all tested species): > 90%
- cytotoxicity in presence or absence of ultraviolet-visible irradiation [10]: not cytotoxic
- time to LPT99 precipitation [11]: approximately 2 months
- hair cell loss (cytocochleogram) [12]: no reliable evidence of test-article-related hair cell loss
- otoscopic scores (erythema, edema, wounds) of tympanic membranes [12]: no statistically significant changes
